PMC8222254, “Self-assembly of an anion receptor with metal-dependent kinase inhibition and potent in vitro anti-cancer properties” (Nature Communications, 2021)
Values joined by “and” are separate entries in the source; they are usually repeats but may differ in a detail not shown here. Equal values may be shown once.

Tests used:
Assay in all cases: Kinase inhibition screen, cell-free 33P ATP assay at 10 μM
Type in all cases: biochemical
[1] = molecular target: T1, 140 purified human kinases (Homo sapiens, UniProt O00418); conditions: EF2K
T1 sequence (O00418 1-725): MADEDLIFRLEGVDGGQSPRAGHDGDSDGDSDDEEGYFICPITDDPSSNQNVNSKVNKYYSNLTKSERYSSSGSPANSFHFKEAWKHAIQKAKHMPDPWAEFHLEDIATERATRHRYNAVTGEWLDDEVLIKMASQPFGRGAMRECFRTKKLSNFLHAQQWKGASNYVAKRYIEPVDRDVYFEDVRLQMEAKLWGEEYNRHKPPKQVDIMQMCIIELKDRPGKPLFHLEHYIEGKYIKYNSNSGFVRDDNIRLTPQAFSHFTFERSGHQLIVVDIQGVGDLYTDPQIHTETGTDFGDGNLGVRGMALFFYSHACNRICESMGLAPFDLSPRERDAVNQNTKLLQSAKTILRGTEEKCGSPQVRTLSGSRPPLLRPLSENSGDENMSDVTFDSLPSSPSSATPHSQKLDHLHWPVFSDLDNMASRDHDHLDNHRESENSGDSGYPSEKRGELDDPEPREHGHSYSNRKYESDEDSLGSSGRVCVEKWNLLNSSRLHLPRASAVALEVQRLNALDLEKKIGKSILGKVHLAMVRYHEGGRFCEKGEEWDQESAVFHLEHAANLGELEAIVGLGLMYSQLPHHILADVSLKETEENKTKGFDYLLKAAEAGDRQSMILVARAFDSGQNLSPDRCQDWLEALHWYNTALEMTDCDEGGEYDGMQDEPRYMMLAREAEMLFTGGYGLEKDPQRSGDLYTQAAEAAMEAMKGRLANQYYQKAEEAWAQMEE
Procedure, shortened: (§1)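 Each complex tested in duplicate at 10 μM; cell-free radiometric assay using ^33P ATP on purified enzymes. Hits mapped by HGNC symbol onto the kinome tree.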

[2] = molecular target: T2, 140 purified human kinases (Homo sapiens, UniProt Q8TDC3)
T2 sequence (Q8TDC3 1-778): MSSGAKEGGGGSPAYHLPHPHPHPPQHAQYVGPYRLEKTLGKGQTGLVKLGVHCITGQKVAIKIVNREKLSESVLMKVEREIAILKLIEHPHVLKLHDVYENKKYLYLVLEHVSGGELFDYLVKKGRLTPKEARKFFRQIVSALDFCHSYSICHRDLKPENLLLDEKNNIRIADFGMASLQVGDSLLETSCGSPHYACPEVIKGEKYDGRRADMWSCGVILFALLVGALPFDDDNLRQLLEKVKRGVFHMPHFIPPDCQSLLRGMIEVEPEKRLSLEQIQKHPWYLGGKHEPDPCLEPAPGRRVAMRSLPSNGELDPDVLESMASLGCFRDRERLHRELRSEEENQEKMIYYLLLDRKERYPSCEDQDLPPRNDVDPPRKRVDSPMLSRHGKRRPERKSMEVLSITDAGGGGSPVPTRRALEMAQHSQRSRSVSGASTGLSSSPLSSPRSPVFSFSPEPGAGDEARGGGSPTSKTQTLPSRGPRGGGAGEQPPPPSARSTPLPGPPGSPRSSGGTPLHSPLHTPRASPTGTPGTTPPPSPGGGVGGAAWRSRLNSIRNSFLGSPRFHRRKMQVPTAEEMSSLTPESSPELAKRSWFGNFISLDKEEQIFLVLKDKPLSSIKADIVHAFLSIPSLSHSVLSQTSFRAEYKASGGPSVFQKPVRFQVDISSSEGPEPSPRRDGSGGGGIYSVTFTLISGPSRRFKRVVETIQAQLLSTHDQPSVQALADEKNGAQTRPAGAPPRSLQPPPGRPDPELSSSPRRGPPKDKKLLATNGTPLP
Procedure, shortened: as §1

[3] = molecular target: 140 purified human kinases (Homo sapiens, UniProt P16234); conditions: PDGFRA
Sequence of 140 purified human kinases (Homo sapiens, UniProt P16234) (P16234 24-1089): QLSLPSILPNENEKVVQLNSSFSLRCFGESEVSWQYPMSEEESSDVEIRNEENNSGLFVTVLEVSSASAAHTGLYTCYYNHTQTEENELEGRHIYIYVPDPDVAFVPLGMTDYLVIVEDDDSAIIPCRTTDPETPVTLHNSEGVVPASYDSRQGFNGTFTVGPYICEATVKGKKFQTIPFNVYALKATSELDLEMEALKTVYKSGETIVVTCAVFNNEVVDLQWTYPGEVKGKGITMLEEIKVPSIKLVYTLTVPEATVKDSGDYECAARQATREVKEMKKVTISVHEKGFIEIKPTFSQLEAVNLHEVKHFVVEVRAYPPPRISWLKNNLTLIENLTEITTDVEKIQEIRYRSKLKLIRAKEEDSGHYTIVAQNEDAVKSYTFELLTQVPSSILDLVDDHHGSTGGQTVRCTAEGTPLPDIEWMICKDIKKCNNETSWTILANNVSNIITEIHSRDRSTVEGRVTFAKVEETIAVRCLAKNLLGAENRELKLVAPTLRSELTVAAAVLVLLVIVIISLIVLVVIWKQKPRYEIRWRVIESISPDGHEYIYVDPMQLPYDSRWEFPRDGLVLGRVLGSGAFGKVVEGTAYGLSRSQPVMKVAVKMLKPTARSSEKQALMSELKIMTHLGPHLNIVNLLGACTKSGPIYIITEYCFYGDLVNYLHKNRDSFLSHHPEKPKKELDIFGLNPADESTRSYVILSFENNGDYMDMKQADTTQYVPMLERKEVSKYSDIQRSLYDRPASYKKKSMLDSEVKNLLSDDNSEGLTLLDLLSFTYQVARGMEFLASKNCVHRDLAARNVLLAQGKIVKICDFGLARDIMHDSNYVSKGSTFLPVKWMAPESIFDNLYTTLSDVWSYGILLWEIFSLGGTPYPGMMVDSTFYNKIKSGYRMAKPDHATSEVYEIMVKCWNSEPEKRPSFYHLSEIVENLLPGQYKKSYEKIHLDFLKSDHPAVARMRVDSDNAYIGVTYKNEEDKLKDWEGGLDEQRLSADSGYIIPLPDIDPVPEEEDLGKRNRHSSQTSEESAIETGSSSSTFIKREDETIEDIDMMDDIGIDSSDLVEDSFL
Procedure, shortened: as §1

[4] = molecular target: 140 purified human kinases (Homo sapiens, UniProt Q02763)
Sequence of 140 purified human kinases (Homo sapiens, UniProt Q02763) (Q02763 23-1124): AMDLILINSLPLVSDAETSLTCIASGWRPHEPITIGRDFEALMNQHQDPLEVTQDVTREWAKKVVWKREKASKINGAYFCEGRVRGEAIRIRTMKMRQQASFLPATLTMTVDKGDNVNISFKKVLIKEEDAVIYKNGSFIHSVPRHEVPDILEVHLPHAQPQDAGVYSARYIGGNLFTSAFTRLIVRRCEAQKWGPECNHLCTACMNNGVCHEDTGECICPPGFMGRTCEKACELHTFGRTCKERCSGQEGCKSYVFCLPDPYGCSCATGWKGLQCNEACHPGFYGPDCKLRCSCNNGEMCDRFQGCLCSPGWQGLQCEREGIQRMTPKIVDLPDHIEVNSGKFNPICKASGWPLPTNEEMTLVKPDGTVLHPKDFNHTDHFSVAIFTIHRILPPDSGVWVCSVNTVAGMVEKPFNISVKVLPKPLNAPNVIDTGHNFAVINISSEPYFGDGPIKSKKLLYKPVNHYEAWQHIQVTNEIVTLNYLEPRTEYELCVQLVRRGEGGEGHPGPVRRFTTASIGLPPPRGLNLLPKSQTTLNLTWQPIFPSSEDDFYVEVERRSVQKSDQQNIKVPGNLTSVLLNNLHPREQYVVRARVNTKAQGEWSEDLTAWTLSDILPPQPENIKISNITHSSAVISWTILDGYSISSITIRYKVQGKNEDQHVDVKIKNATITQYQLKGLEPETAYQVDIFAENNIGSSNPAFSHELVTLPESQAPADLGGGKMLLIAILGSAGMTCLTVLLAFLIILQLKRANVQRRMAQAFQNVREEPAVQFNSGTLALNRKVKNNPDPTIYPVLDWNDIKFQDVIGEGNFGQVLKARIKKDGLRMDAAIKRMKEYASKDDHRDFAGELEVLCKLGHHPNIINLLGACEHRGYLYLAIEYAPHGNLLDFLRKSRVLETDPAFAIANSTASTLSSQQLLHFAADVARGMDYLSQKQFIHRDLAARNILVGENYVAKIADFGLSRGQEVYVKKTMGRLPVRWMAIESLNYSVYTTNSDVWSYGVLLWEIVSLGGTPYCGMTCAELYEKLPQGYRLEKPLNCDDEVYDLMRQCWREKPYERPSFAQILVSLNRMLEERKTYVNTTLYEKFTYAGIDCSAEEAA
Procedure, shortened: as §1

[5] = molecular target: T3, 140 purified human kinases (Homo sapiens, UniProt Q9BXA7)
T3 sequence (Q9BXA7 1-367): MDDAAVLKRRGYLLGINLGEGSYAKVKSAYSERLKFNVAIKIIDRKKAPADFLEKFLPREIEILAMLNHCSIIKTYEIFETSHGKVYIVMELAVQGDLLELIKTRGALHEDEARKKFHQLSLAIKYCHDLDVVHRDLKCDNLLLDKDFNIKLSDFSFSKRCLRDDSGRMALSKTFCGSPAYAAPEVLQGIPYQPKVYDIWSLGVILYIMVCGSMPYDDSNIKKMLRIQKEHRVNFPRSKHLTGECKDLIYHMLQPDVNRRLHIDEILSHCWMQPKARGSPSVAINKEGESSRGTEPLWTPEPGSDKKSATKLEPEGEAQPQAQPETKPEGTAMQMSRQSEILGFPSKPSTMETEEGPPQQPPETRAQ
Procedure, shortened: as §1

[6] = molecular target: 140 purified human kinases (Homo sapiens, UniProt Q13164)
Sequence of 140 purified human kinases (Homo sapiens, UniProt Q13164) (Q13164 whole entry): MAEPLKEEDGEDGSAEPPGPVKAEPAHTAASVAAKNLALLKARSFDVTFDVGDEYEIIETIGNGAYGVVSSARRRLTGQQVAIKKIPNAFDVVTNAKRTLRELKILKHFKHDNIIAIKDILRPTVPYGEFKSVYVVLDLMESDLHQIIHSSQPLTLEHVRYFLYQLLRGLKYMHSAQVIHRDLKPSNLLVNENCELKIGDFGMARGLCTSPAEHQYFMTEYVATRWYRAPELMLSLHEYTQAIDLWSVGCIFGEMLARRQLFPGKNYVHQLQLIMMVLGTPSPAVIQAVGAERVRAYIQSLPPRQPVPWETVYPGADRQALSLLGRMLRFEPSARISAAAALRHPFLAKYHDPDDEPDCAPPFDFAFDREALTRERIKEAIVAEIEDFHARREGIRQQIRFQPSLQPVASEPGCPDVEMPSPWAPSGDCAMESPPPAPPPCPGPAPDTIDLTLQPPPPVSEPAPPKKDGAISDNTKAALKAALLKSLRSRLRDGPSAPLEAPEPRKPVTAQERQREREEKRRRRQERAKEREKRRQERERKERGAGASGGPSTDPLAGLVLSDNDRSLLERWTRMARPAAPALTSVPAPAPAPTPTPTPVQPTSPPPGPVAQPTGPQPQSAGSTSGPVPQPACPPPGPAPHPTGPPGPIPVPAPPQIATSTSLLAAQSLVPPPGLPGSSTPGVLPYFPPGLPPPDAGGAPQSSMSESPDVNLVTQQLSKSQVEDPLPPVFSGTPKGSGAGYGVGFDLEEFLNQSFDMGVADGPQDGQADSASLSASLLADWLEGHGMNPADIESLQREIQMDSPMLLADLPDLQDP
Procedure, shortened: as §1

With `[Cu+2].[Cu+2].[Cu+2].c1ccc(-c2csc(NCCN(CCNc3nc(-c4ccccn4)cs3)CCNc3nc(-c4ccccn4)cs3)n2)nc1.c1ccc(-c2csc(NCCN(CCNc3nc(-c4ccccn4)cs3)CCNc3nc(-c4ccccn4)cs3)n2)nc1` [[L2Cu3]6+] the “% Inhibition Run 1” value [1] was 60.6%, the “% Inhibition Run 2” value [1] was 65.9% and the “% Inhibition, Mean” value [1] was 63%. For the same molecule, the mean % activity [1] was 37%, the “% activity” value ([1]; Run 1) was 39.4% and the “% activity” value ([1]; Run 2) was 34.1%. For the same molecule, the “% Inhibition Run 1” value ([2]; BRSK1) was 95.4%, the “% Inhibition Run 2” value ([2]; BRSK1) was 93.2% and the “% Inhibition, Mean” value ([2]; BRSK1) was 94%. The mean % activity ([2]; BRSK1) was 5.7%, the “% activity” value ([2]; BRSK1, Run 1) was 4.6% and the “% activity” value ([2]; BRSK1, Run 2) was 6.8%. For the same molecule, the “% Activity inhibition Mean” value ([2]; BRSK1, 10 µM) was 94.3%, the “% Activity inhibition Run 1” value ([2]; BRSK1, 10 µM) was 95.4% and the “% Activity inhibition Run 2” value ([2]; BRSK1, 10 µM) was 93.2%. For the same molecule, the “% Activity remaining Run 1” value ([2]; BRSK1, 10 µM) was 4.60%, the “% Activity remaining Run 2” value ([2]; BRSK1, 10 µM) was 6.80% and the “% Activation, Mean value” [3] was 4.7%. For the same molecule, the “% Inhibition Run 1” value [3] was 10.8%, the “% Inhibition Run 2” value [3] was -20.2% and the “% Inhibition, Mean” value [3] was -4.7%. For the same molecule, the mean % activity [3] was 105%, the “% activity” value ([3]; Run 1) was 89.2% and the “% activity” value ([3]; Run 2) was 120.2%. For the same molecule, the “% Inhibition Run 1” value ([4]; TIE2) was 73.2%, the “% Inhibition Run 2” value ([4]; TIE2) was 55% and the “% Inhibition, Mean” value ([4]; TIE2) was 64%. For the same molecule, the mean % activity ([4]; TIE2) was 36%, the “% activity” value ([4]; TIE2, Run 1) was 26.8% and the “% activity” value ([4]; TIE2, Run 2) was 45%. The “% Inhibition Run 1” value ([5]; TSSK1) was 44%, the “% Inhibition Run 2” value ([5]; TSSK1) was 46.8% and the “% Inhibition, Mean” value ([5]; TSSK1) was 45%. For the same molecule, the mean % activity ([5]; TSSK1) was 55%, the “% activity” value ([5]; TSSK1, Run 1) was 56% and the “% activity” value ([5]; TSSK1, Run 2) was 53.2%. The “% Activation, Mean value” ([6]; ERK5) was 2%, the “% Inhibition Run 1” value ([6]; ERK5) was 3% and the “% Inhibition Run 2” value ([6]; ERK5) was -7.2%. The “% Inhibition, Mean” value ([6]; ERK5) was -2%, the mean % activity ([6]; ERK5) was 102% and the “% activity” value ([6]; ERK5, Run 1) was 97%. For the same molecule, the “% activity” value ([6]; ERK5, Run 2) was 107.2%.
For `CC(=O)[O-].CC(=O)[O-].CC(=O)[O-].CC(=O)[O-].CC(=O)[O-].CC(=O)[O-].[Zn+2].[Zn+2].[Zn+2].c1ccc(-c2csc(NCCN(CCNc3nc(-c4ccccn4)cs3)CCNc3nc(-c4ccccn4)cs3)n2)nc1.c1ccc(-c2csc(NCCN(CCNc3nc(-c4ccccn4)cs3)CCNc3nc(-c4ccccn4)cs3)n2)nc1` [[L2Zn3]6+], the “% Activation, Mean value” [1] was 0.8%, the “% Inhibition, Mean” value [1] was -0.8% and the “% Inhibition, Run 1 / Run 2” value [1] was 2% and -3.6%. For the same molecule, the mean % activity [1] was 101%, the “% activity” value ([1]; duplicate runs) was 98% and 104% and the “% Inhibition, Mean” value ([2]; BRSK1) was 32%. For the same molecule, the “% Inhibition, Run 1 / Run 2” value ([2]; BRSK1) was 39% and 26%, the mean % activity ([2]; BRSK1) was 68% and the “% activity” value ([2]; BRSK1, duplicate runs) was 62% and 74%. For the same molecule, the “% Inhibition, Mean” value [3] was 24%, the “% Inhibition, Run 1 / Run 2” value [3] was 27% and 22% and the mean % activity [3] was 76%. The “% activity” value ([3]; duplicate runs) was 74% and 78%, the “% Inhibition, Mean” value ([4]; TIE2) was 85% and the “% Inhibition, Run 1 / Run 2” value ([4]; TIE2) was 92% and 78%. The mean % activity ([4]; TIE2) was 15%, the “% Activity inhibition Mean” value ([4]; TIE2, 10 µM) was 84.5% and the “% Activity inhibition Run 1” value ([4]; TIE2, 10 µM) was 92%. For the same molecule, the “% Activity inhibition Run 2” value ([4]; TIE2, 10 µM) was 77%, the “% Activity remaining Run 1” value ([4]; TIE2, 10 µM) was 8% and the “% Activity remaining Run 2” value ([4]; TIE2, 10 µM) was 23%. The “% Inhibition, Mean” value ([5]; TSSK1) was 27%, the “% Inhibition, Run 1 / Run 2” value ([5]; TSSK1) was 29% and 24% and the mean % activity ([5]; TSSK1) was 73%. The “% activity” value ([5]; TSSK1, duplicate runs) was 71% and 76%, the “% Inhibition, Mean” value ([6]; ERK5) was 16% and the mean % activity ([6]; ERK5) was 84%. For the same molecule, the “% activity” value ([6]; ERK5, duplicate runs) was 65% and 104%.
